Source: article PMC12040169 (PLOS Biology, 2025)

Assay: in vitro
Settings: human, hela cells, % viability

SMILES | viability at 28.5 h, 10 µM [%] | viability at 28.5 h, 10 µM (bulk resorufin, single well) [%]
O=C(Nc1ccc(S(=O)(=O)N2CCCCC2)cc1)c1nc(SCc2ccccc2)ncc1Cl [CBK268901] | 107 | –
COc1ccc(OC)c(NC(=O)CN2CCN(c3ccccn3)CC2)c1 [CBK262978] | 83.7 | –
CC(=O)c1cc2c(N)c(C(N)=O)sc2nc1C [CBK100769] | 102 | –
O=C(Nc1cc(NC(=O)C2C3C=CC(C3)C2C(=O)O)ccc1Cl)c1cccs1 (stereo not shown) [CBK263959] | 89.6 | –
COc1ccc(C(=O)NC(c2ccc(OC)c(OC)c2)c2cc(Cl)c3cccnc3c2O)cc1 (stereo not shown) [CBK263992] | 96.3 | –
CC(=O)c1c(O)n(C2CCCCC2)c(=O)[nH]c1=O [CBK287861] | – | 91.9
NC(=O)C(NCc1ccccc1)c1ccc(Cl)cc1 (stereo not shown) [CBK012748] | 84 | –
CC(C)C(=O)N1CCCC2(CC1)CN(C)Cc1ccccc1O2 (stereo not shown) [CBK285132] | 103 | –
CN1C(=O)COc2ccccc2C/C=C/C[C@@H]2[C@H]1CCCN2S(=O)(=O)N1CCOCC1 [CBK292063] | 90.6 | –
O=C(Nc1ccccn1)C1CCCN1c1nc(O)cc(C(F)(F)F)n1 (stereo not shown) [CBK004254] | 91 | –
CCn1c(=O)n(CC(=O)N2CC(C)CC(C)C2)c2cccnc21 (stereo not shown) [CBK283845] | 95.3 | –
OCCN(Cc1cccnc1)Cc1cccn1-c1ccc(F)cc1 [CBK283023] | 95.9 | –
NCc1ccc(C(=O)N(CCc2cc(C(F)(F)F)cc(C(F)(F)F)c2)c2ccc(Cl)c(Cl)c2)cc1 [CBK008632T] | 112 | –
COC(=O)c1ccc(Nc2cccc(-c3cccc(N)c3)n2)cc1OC [CBK037619] | 102 | –
CC(C)CNc1nc(-c2cc(C(F)(F)F)cc(C(F)(F)F)c2)cnc1N [CBK063708] | 85.7 | –
Cc1nc2nc(SCc3cc(=O)n4ccccc4n3)nn2c(C)c1Cc1ccccc1 [CBK294460] | 89.9 | –
COc1ccc(/C=C2\S/C(=N/N=C/c3ccc(OC)cc3)N(c3ccc(O)cc3)C2=O)cc1 [CBK262780] | 87.7 | –

SMILES | viability at 28.5 h, 10 µM [%] | viability at 28.5 h, 10 µM (bulk resorufin, single well) [%]
COc1ccc([C@@]23CC[C@H](NC(=O)Nc4ccc(F)c(F)c4)C[C@@H]2N(Cc2ccccc2)CC3)cc1OC [CBK041333T] | 94.5 | –
c1cnc(OC2CCN(CC3CCCCC3)CC2)c(OC2CCCCC2)n1 [CBK082879T] | 101 | –
CN1CCN(C)C(COc2nc3cc(Cl)c(Cl)cc3nc2N2CCCC2)C1 (stereo not shown) [CBK115294] | 92 | –
Cc1ccccc1C(=O)N1CCC(O)(Cn2ccnc2C)CC1 [CBK284950] | 105 | –
Cc1cccc(C)c1OCC(=O)Nc1ccc(S(=O)(=O)N2CCOCC2)cc1 [CBK266967] | 94.1 | –
Cc1ccc(S(=O)(=O)c2cc3c(=O)n4ccccc4nc3n(CCCN3CCOCC3)c2=N)cc1 [CBK265590] | 101 | –
O=C(CN1C(=O)S/C(=C\c2ccc(OCc3ccccc3F)cc2)C1=O)c1ccc(Cl)cc1 [CBK264632] | 97.6 | –
CCN(CC)CCCNC(=O)N1CCN(Cc2ccccc2)CC1 [CBK155655] | 89.8 | –
O=C(O)CN(CC(=O)Nc1ccc(Cl)cc1)Cc1ccccc1 [CBK286585] | 85.5 | –
O=C(Nc1nnc(-c2ccncc2)o1)c1ccc(F)cc1 [CBK287431] | 80 | –
Cc1ccc(S(=O)(=O)N(CC(=O)NCC2CCCO2)c2cccc(C)c2C)cc1 (stereo not shown) [CBK265339] | 72.7 | –
Cc1oc2ccc(NS(=O)(=O)c3ccccc3)cc2c1C(=O)O [CBK287071] | 95.3 | –
O=C(NCCOc1ccccc1)NC(=O)C1CCNCC1 [CBK088187T] | 119 | –
COc1ccc(N2CCN(c3cncc(-c4cccs4)n3)CC2)cc1OC [CBK065687] | 104 | –
CCN1CC2(CCCN(Cc3nnc(-c4cccnc4)o3)C2)CCC1=O (stereo not shown) [CBK306881] | 86.4 | –
Cc1nc2ccc(C(=O)NC3CCCOC3)cc2s1 (stereo not shown) [CBK282509] | 82.8 | –
c1ccc(CNc2nc(-c3ccco3)cn3ccnc23)nc1 [CBK037482] | 96.6 | –
